Laboratory results taken from PubChem BioAssay AID1794812.
pEC50: −log10 of the molar value. Records with an inconclusive call do not appear.

Target: Excitatory amino acid transporter 3 (Homo sapiens) (UniProt P43005)
Assay: SLC1A1 substrate-evoked membrane depolarization, dose response, membrane potential dye, HEK-293 overexpressing cells (AID 1794812)
Settings: HEK-293 SLC1A1 OE, FLIPR membrane potential dye

Excitatory amino acid transporter 3 (Homo sapiens), sequence (P43005 whole entry, looked up): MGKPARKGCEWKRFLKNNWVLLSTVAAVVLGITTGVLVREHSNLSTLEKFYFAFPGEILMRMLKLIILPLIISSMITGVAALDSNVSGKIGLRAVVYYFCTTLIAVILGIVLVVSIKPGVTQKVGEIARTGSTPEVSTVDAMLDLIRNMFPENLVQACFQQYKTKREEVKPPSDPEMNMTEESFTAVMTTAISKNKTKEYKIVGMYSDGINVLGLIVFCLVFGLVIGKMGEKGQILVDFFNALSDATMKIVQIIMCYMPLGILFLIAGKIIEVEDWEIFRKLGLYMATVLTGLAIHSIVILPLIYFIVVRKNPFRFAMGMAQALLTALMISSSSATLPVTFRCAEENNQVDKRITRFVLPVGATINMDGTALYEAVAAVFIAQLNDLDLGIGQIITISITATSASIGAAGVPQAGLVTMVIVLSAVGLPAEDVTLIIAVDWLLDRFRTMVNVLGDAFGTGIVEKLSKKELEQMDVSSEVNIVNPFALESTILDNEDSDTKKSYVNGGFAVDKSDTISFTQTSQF

N[C@@H](CS)C(=O)O
pEC50: 3.79
